These results are taken from the OPERA property sets (Mansouri et al. 2018).

Broadly, the boiling point is the temperature of boiling at a given pressure. As a reminder, the melting point is the temperature, or range, at which the solid turns liquid.

Conditions in one data set: not given
Turning to `C[C@H]1CC=CCC1`, the boiling point turned out to be 103 °C and the melting point is -116 °C.
Take `CCC1CCc2ccccc2C1` (configuration not stated): the boiling point stood at 235 °C and the melting point is -42.8 °C.
Take `COc1cc(S(C)=O)ccc1-c1nc2ncccc2[nH]1` (configuration not stated): the melting point came out at 204 °C.
As for `O=C(O)C(Cl)=C(Cl)Cl`, the boiling point was found to be 222 °C and the melting point worked out at 76 °C.
`OC(CNc1ccccn1)c1ccccc1` (configuration not stated): the melting point stood at 83.5 °C.
The compound `CCCCCCCCCCCCCCCCCCCCC1CCCCC1` displayed a boiling point of 430 °C and a melting point of 48.5 °C.
The compound `COc1nccnc1NS(=O)(=O)c1ccc(N)cc1` came in with a melting point of 176 °C.
As for `NCCCC[C@H](N)C(=O)O`, the log10 vapour pressure (mmHg) was -8.28.
With `FCCCl`, the boiling point amounted to 53.1 °C and the melting point is -50 °C.
For `O=c1ccn([C@H]2CC[C@@H](CO)O2)c(=O)[nH]1`, the melting point was 128 °C.
On to `ClCOCCl`, for which the boiling point stood at 106 °C, the log10 vapour pressure (mmHg) stood at 1.47 and the melting point was -41.5 °C.
`CC(=O)c1cccc([N+](=O)[O-])c1` returned a boiling point of 202 °C and a melting point of 81 °C.
For the compound `CCCCCCCCCCCCC(CCCCCCCCCCC)CCCCCCCCCCCC`, the melting point was determined as 9.7 °C.
As for `Nc1nc(N)nc(-c2cc(Cl)ccc2Cl)n1`, the melting point is 268 °C.
Regarding `C=CC(O)CCCCCC` (configuration not stated), the boiling point came out at 194 °C.
`Cc1ccc(S(=O)O)cc1`: the melting point worked out at 86.5 °C.
Turning to `BrCCCCBr`, the boiling point was determined as 197 °C, the log10 vapour pressure (mmHg) is -0.211 and the melting point was -16.5 °C.
As for `CO[C@H](C(=O)[C@@H](O)[C@@H](C)O)C1Cc2cc3cc(O[C@H]4C[C@@H](O[C@H]5C[C@@H](O)[C@H](O)[C@@H](C)O5)[C@@H](O)[C@@H](C)O4)c(C)c(O)c3c(O)c2C(=O)[C@H]1O[C@H]1C[C@@H](O[C@H]2C[C@@H](O[C@H]3C[C@](C)(O)[C@H](O)[C@@H](C)O3)[C@H](O)[C@@H](C)O2)[C@H](O)[C@@H](C)O1` (some centres not stated), the melting point amounted to 182 °C.
The same measure, in the same setting: for `O=c1ccn([C@@H]2C[C@H](F)[C@@H](CO)O2)c(=O)[nH]1` the value was 186 °C.
For `O=C(c1ccccc1)c1ccccc1`, the ready biodegradability entry is “not readily biodegradable”.
Turning to `CCOC(=O)CN`, the boiling point is 149 °C.
`C[C@H]1C(=O)CC[C@@H]2[C@]1(C)CC[C@H]1[C@@]2(C)CC[C@@]2(C)[C@@H]3CC(C)(C)CC[C@]3(C)CC[C@]12C` showed a melting point of 263 °C.
As for `CCCCC(CC)COC(=O)Cl` (configuration not stated), the boiling point is 207 °C and the log10 vapour pressure (mmHg) is -0.775.
In turn, `CC(C)(Cl)C(=O)O` showed a melting point of 31 °C.
`Cc1ccc(O)cn1` showed a melting point of 169 °C.
Consider `COc1cc(OC)nc(NC(=O)NS(=O)(=O)c2c(-c3nnn(C)n3)cnn2C)n1`, for which the log10 Koc (L/kg) is 1.89, the log10 vapour pressure (mmHg) is -10.5 and the melting point turned out to be 170 °C.
In the case of `Cc1ccccc1CBr`, the boiling point was 217 °C and the melting point was 21 °C.
As for `CC1CNCC(C)O1` (configuration not stated), the boiling point was 147 °C and the melting point is -88 °C.
With `CC(F)(F)C(Cl)(Cl)Cl`, the boiling point stood at 73 °C.
Take `C[C@@H]1O[C@@H](O[C@@H]2C=C3CC[C@@H]4[C@H](CC[C@]5(C)[C@@H](c6ccc(=O)oc6)CC[C@]45O)[C@@]3(C)CC2)[C@H](O)[C@H](O)[C@H]1O`: the melting point is 221 °C.
Turning to `C=Cc1ccccc1Br`, the boiling point is 209 °C and the melting point was -52.5 °C.
As to `Cc1ccc(C(=O)O)cc1`, the log10 Koc (L/kg) came to 1.77, the log10 vapour pressure (mmHg) is -4.29, the melting point stood at 180 °C and the ready biodegradability entry is “readily biodegradable”.
In turn, `Cc1noc(NS(=O)(=O)c2ccc(N)cc2)c1C` came in with a melting point of 191 °C.
Same read-out and setting: for `c1ccc(OCc2ccc(CCCN3CCOCC3)cc2)cc1` the value was 52.5 °C; for `CC(C)=CCC[C@@H](C)C1=C(O)C(=O)C(C)=CC1=O`, 104 °C; for `CC1(N)CCC(C(C)(C)N)CC1` (configuration not stated), -45 °C.
On the same count and under the same terms, for `Clc1cc(Cl)c(-c2c(Cl)cc(Cl)c(Cl)c2Cl)cc1Cl` the value was 83 °C.
On to `c1ccc2c(c1)CCC2`, for which the boiling point was determined as 178 °C, the log10 Henry constant (atm·m³/mol) is -3.7, the log10 biodegradation half-life (days) came out at 0.778 and the log10 vapour pressure (mmHg) was 0.166. For the same compound, the melting point was -51.4 °C.
`CCCCCCCCCCCCC1CCCCC1` had a boiling point of 331 °C and a melting point of 12.5 °C.
Turning to `Nc1ccccn1`, the boiling point is 211 °C, the melting point was found to be 57.5 °C and the ready biodegradability result is “not readily biodegradable”.
As for `N#Cc1ccc(C=O)cc1`, the melting point amounted to 100 °C.
In turn, `CC1=C(C)C(=O)C(C)=C(C)C1=O` yielded a melting point of 112 °C.
As to `Clc1cccc(-c2c(Cl)c(Cl)cc(Cl)c2Cl)c1Cl`, the log10 Henry constant (atm·m³/mol) was -4.31 and the log10 vapour pressure (mmHg) was -5.96.
In turn, `CCOC(=O)C1(c2ccccc2)CCN(CCc2ccc(N)cc2)CC1` returned a melting point of 83 °C.
Still for that read-out and setting: in the case of `C=C(NC(C)=O)C(=O)CCC(N)=O` it was 130 °C.
`O=S(=O)(F)c1ccccc1` displayed a boiling point of 204 °C.
Consider `Cc1c(Br)cc(Br)cc1Br`, for which the boiling point was 290 °C and the melting point came out at 70 °C.
Regarding `CN(C)CCn1cnc2c1c(=O)n(C)c(=O)n2C`, the melting point turned out to be 95 °C.
Same read-out and setting: for `CCCCC[C@H](O)/C=C/[C@H]1[C@H](O)CC(=O)[C@@H]1C/C=C\CCCC(=O)O` the value was 67 °C.
On to `CCCN(CCC)C(=O)SCc1ccccc1`, for which the log10 vapour pressure (mmHg) is -6.29.
With `ON=C(C(=NO)c1ccccc1)c1ccccc1`, the melting point was determined as 240 °C.
The same measure, in the same setting: for `CC(CC(=O)O)C(=O)O` (configuration not stated) the value was 118 °C; for `Cc1ccc2[nH]c(C)cc2c1`, 115 °C.
`O[C@@H](c1ccccc1)[C@@H](O)c1ccccc1` came in with a melting point of 138 °C.
With `O=C1NC(=O)c2ccccc21`, the melting point was 238 °C and the ready biodegradability result is recorded as “readily biodegradable”.
Consider `CCCCCCCCCCCCCCCC`, for which the boiling point was 287 °C, the log10 biodegradation half-life (days) was found to be 1.23, the log10 vapour pressure (mmHg) was -2.84 and the melting point came to 18.1 °C. For the same compound, the ready biodegradability result is given as “not readily biodegradable”.
For the compound `C=C(C)C(=O)O`, the boiling point came to 163 °C, the log10 Henry constant (atm·m³/mol) was -6.41, the log10 vapour pressure (mmHg) was -0.0044 and the melting point is 16 °C. Also, the ready biodegradability result is “readily biodegradable”.
As for `Cc1cc(O)c(C)c(O)c1`, the boiling point is 278 °C and the melting point is 163 °C.
`COc1cc2c(cc1O)C(Cc1ccc(OC)c(OC)c1)N(C)CC2` (configuration not stated) gave a melting point of 127 °C.
For `CC(C)Nc1ccccc1`, the boiling point came to 203 °C and the melting point is -10 °C.
Consider `C=C[C@@]1(C)C=C2CC[C@@H]3[C@](C)(CCC[C@@]3(C)C(=O)O)[C@H]2CC1`, for which the melting point was found to be 218 °C.
For `Cc1cc(O)cc(C)c1Cl`, the boiling point came out at 246 °C and the melting point worked out at 115 °C.
Take `CCCCNC(=O)n1c(NC(=O)OC)nc2ccccc21`: the log10 Henry constant (atm·m³/mol) was -11.3, the log10 Koc (L/kg) is 2.71 and the log10 vapour pressure (mmHg) is -8.43.
`CC(Cl)(Cl)C(=O)[O][Na]` displayed a log10 Koc (L/kg) of 0.
`CC(C)Oc1ccc(Nc2ccccc2)cc1` displayed a melting point of 79 °C.
On the same count and under the same terms, for `CCOC(=O)c1sc(N)nc1C(F)(F)F` the value was 186 °C; for `CCCC(=O)[O-].[Na+]`, 251 °C.
`CCCCCCOCC` gave a boiling point of 143 °C.

The same data set, now with this note: fish.
The compound `CC1CNC(=S)N1` (configuration not stated) displayed a log10 BCF of 1.
As to `O=C(c1ccccc1)c1ccccc1`, the log10 BCF was found to be 1.08.
Take `Clc1cc(Cl)c(-c2c(Cl)cc(Cl)c(Cl)c2Cl)cc1Cl`: the log10 biotransformation half-life (days) is 2.59.
On to `Nc1ccccn1`, for which the log10 BCF was 1.06.
The same measure, in the same setting: in the case of `CCCCCCCCCCCCCCCC` it was 3.7.
For the compound `C=C[C@@]1(C)C=C2CC[C@@H]3[C@](C)(CCC[C@@]3(C)C(=O)O)[C@H]2CC1`, the log10 BCF came out at 1.92.
On the same count and under the same terms, for `CC(Cl)(Cl)C(=O)[O][Na]` the value was 0.86.
